Measurements reported in patent publication US10966940B2, “Methods for the treatment of tinnitus induced by cochlear excitotoxicity” (INSTITUT NATIONAL DE LA SANTE ET DE LA RECHERCHE MEDICALE …, priority 2004, dated 2021).

Experiments:
[1] = test system: salicylate-induced tinnitus; conditions: cited from earlier work; for false positive responses (jumps in absence of sound) induced by the substance: tinnitus induction; for number of false positives after delivery to the cochleas via the round window membrane: salicylate-treated animals
[2] = test system: NR1 subunit of the cochlear NMDA receptor; conditions: 350 mg/kg i.p. twice over 24 hours; sample after 24 hours
Method: The salicylate dose used is known to induce tinnitus (Guitton et al., J. of Neuroscience 23 (9): 3944-3952 (2003)). Another group of 3 animals served as control and was injected i.p. with a NaCl 0.9% solution of the same volume as salicylate treated animals. Samples were obtained after 24 hours in the salicylate and control groups and 24 hours respectively 5 days post incident for the acoustic trauma group.
Tissues were harvested in cold PBS and homogenized in sample buffer, and the lysates were centrifuged to remove detergent-insoluble material and separated on a 10% SDS-PAGE in Tris/Tricine. After gel electrophoresis, proteins were transferred electrophoretically to nitrocellulose membranes (PVDF transfer membrane Hybond-P, Amersham Pharmacia Biotech, USA). Blots were first incubated with a primary anti-antibody against the NMDA NR1 receptor subunit (1/1000 dilution; rabbit polyclonal antibody, Chemicon international, USA), and with a primary antibody anti-actin (1/50000 dilution, mouse monoclonal anti-β-actin, Sigma, USA) overnight at 4° C. To verify that the molecular weight of the NR1 subunit is identical in both brain and cochlea, immunoblots from the brain of control animals were performed. […] Image scanning of Western blots was then performed for semi-quantification of expression levels of NR1 and actin proteins using Biorad Fluor-S software (Quantity one).

[3] = test system: sensory outer hair cells (OHC) and inner hair cell (IHC) synaptic complex; conditions: 350 mg/kg i.p. twice a day for 2 days
Method: After decapitation of the rats under deep anaesthesia (pentobarbital 50 mg/kg), the cochleas were removed from the temporal bone and perfused with a fixative solution of 2.5% glutaraldehyde in 0.1 M phosphate-buffered saline (PBS), pH 7.3. They were then processed either for scanning (SEM) or transmission electron (TEM) microscopy. For SEM, the otic capsule was dissected out and the stria vascularis, tectorial, and Reissner's membranes were removed. After rinsing in PBS (pH 7.3) the samples were dehydrated in a graded series of ethanol (30-100%), critical point-dried in CO2, coated with gold palladium, and examined using a Hitachi S4000 microscope. For TEM, the cochleas were postfixed in a 1% aqueous solution of osmium tetroxide for 2 hours, rinsed in phosphate buffer, dehydrated in a graded series of ethanol (30-100%), and embedded in Epon resin. Transverse ultrathin sections of the organ of Corti were taken from the apical half of the cochlea. The sections, mounted on formvar-coated or mesh grids, were stained with uranyl acetate, and lead citrate and examined using a Hitachi 7100 microscope.

NMDA receptors = conditions: local administration; cited from earlier work
Long-Evans rats = test: Behavioral (active avoidance) model of tinnitus induced by cochlear excitotoxicity provoked by acute acoustic trauma; type: in vivo, rat
Method: We developed and tested an animal model of tinnitus induced by cochlear excitotoxicity, which was provoked by acoustic trauma. […] These considerations mean for example that more animals are required to obtain a sufficient number of tinnitus cases for study and to permit observation of tinnitus over time. As it is unclear whether a case of tinnitus induced by cochlear excitotoxicity is to last or not, it is advisable to conduct studies in its early stages.
The experiments were performed in two stages. First, the hearing loss following acute acoustic trauma as well as the incidence of tinnitus were evaluated with no therapeutic compound administered.
During experiments, animals were caged individually at a constant temperature with a day/night cycle of 12/12 hours. All behavioral tests were performed in the dark phase, the usual period of animal activity, for every animal individually at about the same time each day. Outside the experiments, the animals received water and nutrition ad libidum. A total of 60 animals were used: 30 for the first stage (of which 25 were tested by behavioral techniques and 5 by electrophysiology), and 30 for the second stage with 10 for each pharmaceutical compound tested.
Acoustic trauma was induced by a continuous pure tone of 6 kHz generated by a waveform synthesizer (Hewlett-Packard 8904A). The animals were anesthetized and exposed to 130 dB sound pressure level (SPL) for 20 minutes, which was routed through a programmable attenuator and presented to the ears in free field via a JBL 075 earphone positioned 10 cm in front of the animal's head. Sound level was measured using a calibrated Bruel and Kjaer microphone (4314) and a Bruel and Kjaer calibrating amplifier (2606).
Behavioral conditioning and testing Animals were conditioned to achieve active avoidance (Guitton et al., J. of Neuroscience 23 (9): 3944-3952 (2003)). Behavioral testing consisted of the performance of a task whenever a sound was produced in a conditioning box with an electrical floor and a climbing pole. […] The unconditional stimulus consisted of an electric shock to the feet of the animals (3.7 mA) during maximally 30 seconds. Interstimulus intervals were 1 second. The electric shocks were stopped by the investigator once the animal correctly climbed onto the pole. Intervals between trials were at least one minute long.
The score was defined as the animal's performance, measured by the number of cases when it climbed correctly onto the pole in response to the sound. As soon as an animal had reached a score of at least 80% in three consecutive sessions, it was considered successfully conditioned and employed in the experiments.
Experiments were conducted daily with measurements of both score and false positive responses during one session of 10 minutes with 10 trials in total. False positive responses were climbings onto the pole between trials without any acoustic stimulation, i.e. during periods of silence. They can be interpreted as the perception of tinnitus, as the animals are performing the task of climbing onto the pole as if they were hearing the stimulus (Guitton et al., J. of Neuroscience 23 (9): 3944-3952 (2003)). Sound stimuli were randomized, and electrical footshocks were only delivered if the animals didn't climb onto the pole in response to sound.
Animals were anaesthetized with a single-dose i.p. injection of 0.3 ml/kg of pentobarbital at 6% (Sanofi) and operated under aseptic conditions right after the first behavioral testing (day 0). The two bullae were opened through a posterior auricular surgical procedure (dorsal approach). After exposure of the two cochleas, gelfoam (Gelita tampon, B. Braun Medical AG) impregnated with 2.5 μl artificial perilymph containing the pharmaceutical compounds was placed on the each of the round windows of the two cochleas. The concentration of all three pharmaceutical compounds used was 50 μM.

guinea pigs [4] = test: ESA noise trauma model: ensemble spontaneous activity of the cochlear nerve; type: in vivo, guinea pig; conditions: for regular ESA peak centered at 900 Hz to 1 kHz: treated ear; for ESA spectral peak centered at 200 to 250 Hz (tinnitus): 50 microM in 0.7% hyaluronic acid gel, round window
Method: We developed therefore an animal model with guinea pigs that were exposed to intensive noise, producing acute acoustic trauma, and whose ESA was recorded to control for the absence or presence of tinnitus (“ESA noise trauma model”). The possibility to record tinnitus by electrophysiological tests provides an excellent tool for evaluating the therapeutic benefits of pharmaceutical compounds in suppressing tinnitus. The development of the ESA noise trauma model required extensive experimentation with different noise trauma protocols as well as the development and testing of specific measurement tools for extended observation periods in vivo.
The experiment was performed in two stages. First, guinea pigs were exposed to intense noise stimulation in order to provoke acute acoustic trauma (day 0). Auditory thresholds and ESA were determined and then followed further by repeated electrophysiological measurements. If persisting tinnitus could still be detected after at least 5 days, an NMDA receptor antagonists (ketamine or 7-CK) was applied in a hyaluronic acid formulation onto the round window membrane of the cochlea. […] After treatment with the NMDA receptor antagonists, electrophysiological measurements of hearing thresholds and ESA continued for at least 10 days. The primary endpoints of the study were to test whether the pharmacological treatment could suppress tinnitus even after its onset, and whether such treatment effect was persisting or not. As a control, contralateral ears were exposed to the same noise exposure and followed by electrophysiology.
Experiments were performed on adult pigmented guinea pigs (250 to 300 grams at study begin). During experiments, animals were caged individually. Outside the experiments, the animals received water and nutrition ad libidum. […] In two contralateral left ears, tinnitus was observed, so that they could be used as a control group.
Acoustic trauma was induced by a continuous pure tone of 6 kHz generated by a waveform synthesizer (Hewlett-Packard 8904A). […] Sound level was measured using a calibrated Bruel and Kjaer microphone (4314) and a Bruel and Kjaer calibrating amplifier (2606).
A teflon-coated platinum electrode implanted onto the round window membranes of both cochleas (with reference electrodes placed in a neck muscle) measured the ESA and the compound action potential of the auditory nerve (CAP). […]
The ESA was recorded from the platinum wire placed in the round window niche. […]
The ESA was measured just before acute acoustic trauma and 20 minutes following noise exposure on day 0, and then repeatedly for at least 10 days as described above. […] Subsequently, ESA was measured again on the first day after treatment (T+1) as well as 10 days after treatment (T+10). […]

guinea pigs [5] = test: CAP audiogram (hearing threshold) in ESA noise trauma model; type: in vivo, guinea pig; conditions: local administration onto round window membrane
Method: A teflon-coated platinum electrode implanted onto the round window membranes of both cochleas (with reference electrodes placed in a neck muscle) measured the ESA and the compound action potential of the auditory nerve (CAP). The surgery was performed using a posterior auricular surgical procedure (dorsal approach) prior to noise exposure. The reference electrode and the round window electrode were soldered to a plug fixed on the skull using dental cement (Unifast Trad, GC Corporation).
The CAP was measured concomitantly with ESA measurements using the same electrode. Tone bursts (with a duration of 9 ms and a rise/fall cycle of 1 ms, 10 per second) generated by an arbitrary function generator (LeCroy Corp., model 9100R) were applied to the animal's ear in free filed via a JBL 075 earphone. CAP audiograms were obtained by varying burst levels from 0 to 100 dB SPL in steps of 5 dB at the frequencies 2, 4, 6, 8, 10, 12, 16, 20, and 26 kHz. Auditory nerve responses were amplified (Tektronic TM 503; gain 2000), filtered (3.5 kHz low pass) and averaged on a PC (Dimension Pentium, Dell). CAP amplitudes were measured peak-to-peak between the first negative depression N1 and the subsequent positive wave P1. The CAP threshold was defined as the sound intensity (in dB SPL) needed to elicit a measurable response (greater than 5 μV). […]

[6] = test system: PCP binding site of the NMDA receptor; conditions: higher affinity than (R)-ketamine; cited from earlier work
tinnitus = conditions: systemic administration; cited from earlier work
[7] = in vivo; cited from earlier work

Cc1cccc(Nc2ccccc2C(=O)O)c1C [mefenamate]
false positive responses (jumps in absence of sound) induced by the substance [1]: increased the number of false positive responses

C[C@]12N[C@H](Cc3ccccc31)c1ccccc12 [MK-801, dizocilpine]
number of false positives after delivery to the cochleas via the round window membrane [1]: decreased significantly

O=C([O-])c1ccccc1O.[Na+] [salicylate, sodium salicylate]
NR1 NMDA receptor subunit expression, higher than control animals [2]: 4% | false positive responses (jumps in absence of sound) induced by the substance [1]: significant increase | stereocilia of OHC and IHC ([3]; SEM): intact | ultrastructure of the IHC synaptic complex ([3]; TEM): No ultrastructural abnormalities

N[C@H](CCCP(=O)(O)O)C(=O)O [D-AP5, D-2-amino-5-phosphonopentanoic acid]
functional recovery and regrowth of auditory dendrites (NMDA receptors): delayed the functional recovery and the regrowth of auditory dendrites

CC1CCCCC1(c1cccs1)N1CCCCC1 (stereo not drawn) [gacyclidine]
number of false positives after delivery to the cochleas via the round window membrane [1]: decreased significantly

CN[C@@]1(c2ccccc2Cl)CCCCC1=O (stereo in doubt) [S-(+)-Ketamine, 2-(2-chlorophenyl)-2-(methylamino)-cyclohexanone]
number of false positives (Long-Evans rats; group 1 (no increase), days 0 and 1): 0.22±0.22 false positives | number of false positives (Long-Evans rats; group 2 (reversible increase), day 0): 0.2±0.2 false positives | number of false positives (Long-Evans rats; group 2 (reversible increase), day 1): 5±0.48 false positives | recovery of behavioral score after trauma, in words (Long-Evans rats; local administration to round window membrane, 50 μM): improvement was slower than in untreated animals | effect on tinnitus (false positives), in words (Long-Evans rats; local administration to round window membrane, 50 μM, before acoustic trauma): only cases of transient tinnitus could be observed | number of animals with no increase in false positives (group 1) (Long-Evans rats; of 10 animals per compound): 5 | number of animals with only reversible increase in false positives (group 2, transient tinnitus) (Long-Evans rats; of 10 animals per compound): 5 | average score at stabilization (Long-Evans rats; rat, in vivo): 89%±2.3 | regular ESA peak centered at 900 Hz to 1 kHz (guinea pigs [4]; 10 days after treatment (T+10)): fully recovered | regular ESA peak centered at 900 Hz to 1 kHz (guinea pigs [4]; day T1 after treatment): still appeared, yet diminished | ESA spectral peak centered at 200 to 250 Hz (tinnitus) (guinea pigs [4]; day T1 after treatment, given after onset of persisting tinnitus): completely disappeared | ESA spectral peak centered at 200 to 250 Hz (tinnitus) (guinea pigs [4]; day T10 after treatment): remained absent | permanent threshold shift (PTS, hearing loss) after treatment (guinea pigs [5]): not changed | affinity relative to (R)-ketamine [6]: 3-4 fold

C1C2CC3CC1CC(C2)C3 [adamantane]
tinnitus during treatment (tinnitus): reduction in tinnitus during treatment

CCN(CC)CCn1c(=O)c(Cc2ccc(OC)cc2)nc2ccccc21 [caroverine]
intracochlear concentration, local versus systemic administration [7]: higher intracochlear concentrations
